# Assay results: patent US20220370416A1, “COMPOUNDS AND METHODS FOR TARGETED DEGRADATION OF KRAS” (Arvinas Operations, Inc., priority 2020, published 2022)
# How the values were obtained:
# KRAS^G13D = target: T1, KRAS^G13D (Homo sapiens, UniProt P01116, G13D); assay: KRAS degradation by immunoblot in HCT 116 cells (specificity); type: cell-based; details: up to 10 μM
# T1 construct: endogenous in cells; host or cells: HCT116
# Source text: MRTX is known to be selective for mutant KRAS^G12C over other KRAS mutants (Hallin et al. 2020). To explore the specificity of LC-2, KRAS degradation was examined in HCT 116 cells, which harbor a heterozygous KRAS^G13D mutation.
# NCI-H2030 (CRL-5914), MIA PaCa-2 (CRL-1420), NCI-H23 (CRL-5800), NCI-H358 (CRL-5807), and HCT-116 (CCL-247) cells were obtained from ATCC, expanded immediately, and frozen down. Vials were thawed and used within 20 passages. SW1573 cells were a gift from Arvinas and were handled in the same manner. […]
# (§1) Cell lysates were clarified at 21000×g for 15 mins at 4° C. Protein levels were quantified using a 50:1 mixture of bicinchoninic acid solution (Millipore Sigma; cat. no. B9643) and 4% (w/v) copper(II) sulfate solution (Millipore Sigma; cat. no. C2284) incubated at 37° C. for 30 mins. Absorbance values at 560 nm were read on an EnVision 2101 Multilabel Reader (PerkinElmer). […]
# (§2) Band intensities were quantified using BioRad's Image Lab Software. Total KRAS levels were examined by quantifying levels of both conjugated KRAS^G12C and unbound KRAS (wt or mutant) using an analysis box that spanned the two bands. This same sized box was used to quantify unbound KRAS in DMSO treated samples to account for background, except for LC-2 Epimer in FIGS. 6A and 6B. […]
# KRAS^G12C = KRAS^G12C (Homo sapiens, UniProt P01116, G12C); assay: KRAS^G12C degradation by immunoblot in NCI-H358 cells; type: cell-based; set-up: MRTX849-VHL bifunctional compounds engage and degrade endogenous KRAS^G12C in NCI-H2030 cells; endogenous in cells; host or cells: NCI-H2030, NCI-H358, MIA PaCa-2, SW1573, NCI-H23; details: NCI-H358, heterozygous KRAS^G12C
# Sequence of KRAS^G12C (P01116 1-188 isoform P01116-2 G12C): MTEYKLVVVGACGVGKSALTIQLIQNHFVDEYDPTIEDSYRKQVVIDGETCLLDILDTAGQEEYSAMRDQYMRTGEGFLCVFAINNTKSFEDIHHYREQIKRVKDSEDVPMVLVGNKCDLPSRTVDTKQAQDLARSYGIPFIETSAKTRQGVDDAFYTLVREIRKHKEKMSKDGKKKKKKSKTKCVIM
# Protocol: NCI-H2030 (CRL-5914), MIA PaCa-2 (CRL-1420), NCI-H23 (CRL-5800), NCI-H358 (CRL-5807), and HCT-116 (CCL-247) cells were obtained from ATCC, expanded immediately, and frozen down. Vials were thawed and used within 20 passages. SW1573 cells were a gift from Arvinas and were handled in the same manner. NCI-H2030, NCI-H23, and NCI-H358 were cultured in RPMI (ATCC30-2001) supplemented with 10% FBS (Biological Industries; cat. no. S1480) and 1% Penicillin-Streptomycin (ThermoFisher; cat. no. 15140122). HCT-116 cells were maintained in high glucose DMEM (ThermoFisher; cat. no. 11965084) supplemented as above. […]
# as §1, §2
# T1 sequence (P01116 1-188 isoform P01116-2 G13D): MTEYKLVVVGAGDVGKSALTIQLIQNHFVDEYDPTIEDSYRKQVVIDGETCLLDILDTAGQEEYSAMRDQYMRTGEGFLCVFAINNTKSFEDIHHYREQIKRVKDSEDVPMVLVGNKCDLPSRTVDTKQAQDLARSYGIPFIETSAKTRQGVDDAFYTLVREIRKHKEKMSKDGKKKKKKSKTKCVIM
structure (smiles),measurement,setting,value
"C=C(F)C(=O)N1CCN(c2nc(OC[C@@H]3CCCN3CCCOCCC(=O)N[C@H](C(=O)N3C[C@H](O)C[C@H]3C(=O)NCc3ccc(-c4scnc4C)cc3)C(C)(C)C)nc3c2CCN(c2cccc4cccc(Cl)c24)C3)C[C@@H]1CC#N [LC-2, (2S,4R)-1-((S)-2-(3-(3-((S)-2-(((7-(8-chloronaphthalen-1-yl)-4-((S)-3-(cyanomethyl)-4-(2-fluoroacryloyl)piperazin-1-yl)-5,6,7,8-tetrahydropyrido[3,4-d]pyrimidin-2-yl)oxy)methyl)pyrrolidin-1-yl)propoxy)propanamido)-3,3-dimethylbutanoyl)-4-hydroxy-N-(4-(4-methylthiazol-5-yl)benzyl)pyrrolidine-2-carboxamide]",engagement or degradation of KRAS^G13D,KRAS^G13D,No engagement or degradation
same,DC50,KRAS^G12C,520 ± 300 nM
same,Dmax,KRAS^G12C,> 40%
